Laboratory results taken from patent US20090105305A1, “Therapeutic Agents - 550” (AstraZeneca AB, priority 2006, published 2009).

Molecular target: T1, human Fatty Acid Synthase (Homo sapiens, UniProt P49327)
T1 construct: made in house
Assay: Human FAS enzyme assay (decrease in NADPH fluorescence)
Assay type: biochemical
Details: % inhibition at a concentration of 100 micromolar
Outline: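 In-house human FAS (0.4 μg) was preincubated 15 min at RT with compound and NADPH (added at 166.6 μM) in 0.1 M Tris pH 7.5, 1 mM glutathione, 0.05% BSA. Malonyl-/acetyl-CoA (500/150 μM in substrate mix) was then added for 60 min. Readout was NADPH fluorescence loss (ex 340/em 460) over a time-zero read, with IC50 from a sigmoid fit.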

T1 sequence (P49327 whole entry): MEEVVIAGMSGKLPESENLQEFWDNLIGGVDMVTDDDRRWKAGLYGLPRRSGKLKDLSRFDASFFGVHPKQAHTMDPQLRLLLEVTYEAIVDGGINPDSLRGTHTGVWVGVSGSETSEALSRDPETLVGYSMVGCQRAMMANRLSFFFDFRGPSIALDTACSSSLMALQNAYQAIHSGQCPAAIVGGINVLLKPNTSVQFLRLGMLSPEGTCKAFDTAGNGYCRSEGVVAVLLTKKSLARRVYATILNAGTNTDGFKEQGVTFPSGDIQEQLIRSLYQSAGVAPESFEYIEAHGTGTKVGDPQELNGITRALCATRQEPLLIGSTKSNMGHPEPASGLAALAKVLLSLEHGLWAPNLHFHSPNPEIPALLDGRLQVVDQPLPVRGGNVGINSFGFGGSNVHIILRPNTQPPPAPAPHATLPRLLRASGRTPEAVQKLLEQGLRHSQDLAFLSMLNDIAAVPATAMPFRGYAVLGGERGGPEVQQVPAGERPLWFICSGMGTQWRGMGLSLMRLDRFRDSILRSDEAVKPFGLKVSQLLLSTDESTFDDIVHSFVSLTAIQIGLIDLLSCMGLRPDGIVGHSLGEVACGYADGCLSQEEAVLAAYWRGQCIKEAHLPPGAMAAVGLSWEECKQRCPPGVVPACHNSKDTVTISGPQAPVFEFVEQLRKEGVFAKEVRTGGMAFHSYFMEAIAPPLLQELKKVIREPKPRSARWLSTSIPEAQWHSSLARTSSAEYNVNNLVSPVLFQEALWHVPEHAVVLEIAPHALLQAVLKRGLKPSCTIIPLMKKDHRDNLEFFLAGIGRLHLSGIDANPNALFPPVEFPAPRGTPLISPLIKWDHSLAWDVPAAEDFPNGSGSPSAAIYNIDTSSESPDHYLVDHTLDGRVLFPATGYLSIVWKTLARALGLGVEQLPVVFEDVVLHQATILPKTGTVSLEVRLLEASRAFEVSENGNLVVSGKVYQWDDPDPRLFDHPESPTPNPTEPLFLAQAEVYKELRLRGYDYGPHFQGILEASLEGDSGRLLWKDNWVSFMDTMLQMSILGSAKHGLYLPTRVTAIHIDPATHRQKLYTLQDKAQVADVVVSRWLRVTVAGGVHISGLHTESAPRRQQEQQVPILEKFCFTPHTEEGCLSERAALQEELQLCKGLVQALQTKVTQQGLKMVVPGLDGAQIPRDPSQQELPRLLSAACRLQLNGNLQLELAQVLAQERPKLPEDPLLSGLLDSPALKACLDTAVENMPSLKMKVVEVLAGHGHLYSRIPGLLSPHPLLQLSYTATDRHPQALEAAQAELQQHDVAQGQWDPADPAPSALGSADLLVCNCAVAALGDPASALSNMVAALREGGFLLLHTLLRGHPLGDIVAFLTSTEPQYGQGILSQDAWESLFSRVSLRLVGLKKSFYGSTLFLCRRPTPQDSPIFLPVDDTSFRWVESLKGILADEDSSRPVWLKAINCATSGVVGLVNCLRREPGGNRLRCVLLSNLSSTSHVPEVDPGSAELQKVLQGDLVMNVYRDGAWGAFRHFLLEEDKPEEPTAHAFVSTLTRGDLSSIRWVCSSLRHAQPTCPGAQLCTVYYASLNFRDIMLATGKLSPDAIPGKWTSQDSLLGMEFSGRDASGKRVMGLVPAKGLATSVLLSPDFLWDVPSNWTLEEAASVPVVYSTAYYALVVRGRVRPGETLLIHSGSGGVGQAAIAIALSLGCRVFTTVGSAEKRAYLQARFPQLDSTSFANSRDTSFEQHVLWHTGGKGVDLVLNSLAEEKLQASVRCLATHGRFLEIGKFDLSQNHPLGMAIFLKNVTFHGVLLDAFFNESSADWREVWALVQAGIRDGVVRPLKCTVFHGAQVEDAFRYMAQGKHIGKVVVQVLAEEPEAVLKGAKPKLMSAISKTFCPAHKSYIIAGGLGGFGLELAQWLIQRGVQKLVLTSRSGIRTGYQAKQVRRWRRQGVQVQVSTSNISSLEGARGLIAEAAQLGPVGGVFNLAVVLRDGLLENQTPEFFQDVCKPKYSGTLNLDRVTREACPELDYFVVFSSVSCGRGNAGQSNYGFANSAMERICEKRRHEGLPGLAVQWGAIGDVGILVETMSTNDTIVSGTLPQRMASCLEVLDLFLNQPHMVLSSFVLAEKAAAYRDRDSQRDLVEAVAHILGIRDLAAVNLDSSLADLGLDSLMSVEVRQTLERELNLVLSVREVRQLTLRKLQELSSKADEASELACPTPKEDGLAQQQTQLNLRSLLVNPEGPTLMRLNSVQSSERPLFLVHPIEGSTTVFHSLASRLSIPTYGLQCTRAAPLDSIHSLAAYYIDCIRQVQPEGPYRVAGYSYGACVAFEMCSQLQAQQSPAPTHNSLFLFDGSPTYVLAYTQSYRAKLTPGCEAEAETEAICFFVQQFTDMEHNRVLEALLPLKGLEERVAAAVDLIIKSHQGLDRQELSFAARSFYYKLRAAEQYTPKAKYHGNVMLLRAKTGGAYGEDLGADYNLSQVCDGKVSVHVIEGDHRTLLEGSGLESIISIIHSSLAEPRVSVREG

inhibition at 100 µM [%] | Structure (SMILES)
76 | Cc1ccc(C(=O)N2CCC(c3ccc(C#N)cc3)CC2)cc1NS(=O)(=O)C(F)(F)F [Example 209, N-[5-[4-(4-cyanophenyl)piperidine-1-carbonyl]-2-methylphenyl]-1,1,1-trifluoromethane-sulfonamide]
69 | Cc1ccc(C(=O)N2CCC(c3ccc(C#N)cc3)CC2)cc1NS(=O)(=O)CC#N [Example 212, 1-cyano-N-[5-[4-(4-cyanophenyl)piperidine-1-carbonyl]-2-methylphenyl]methanesulfonamide]
71 | Cc1ccc(C(=O)N2CCC(c3ccc(F)cc3)CC2)cc1NS(C)(=O)=O [Example 213, N-[5-[4-(4-fluorophenyl)piperidine-1-carbonyl]-2-methylphenyl]methanesulfonamide]
85 | Cc1ccc(C(=O)N2CCC(c3ccc(C(N)=NO)cc3)CC2)cc1NS(C)(=O)=O [Example 214, N′-hydroxy-4-[1-(3-methanesulfonamido-4-methylbenzoyl)piperidin-4-yl]benzene-carboximidamide]
89 | Cc1ccc(C(=O)N2CCC(c3ccc(Cl)cc3)CC2)cc1NS(=O)(=O)C1CCS(=O)(=O)C1 (centres unmarked) [Example 216, N-[5-[4-(4-chlorophenyl)piperidine-1-carbonyl]-2-methylphenyl]-1,1-dioxothiolane-3-sulfonamide]
67 | Cc1ccc(C(=O)N2CCC(c3ccc(C#N)c(Cl)c3)CC2)cc1NS(C)(=O)=O [Example 218, N-[5-[4-(3-chloro-4-cyanophenyl)piperidine-1-carbonyl]-2-methylphenyl]methane-sulfonamide]
87 | COCCOc1ccc(C2CCN(C(=O)c3ccc(C)c(NS(C)(=O)=O)c3)CC2)cc1 [Example 219, N-[5-[4-[4-(2-methoxyethoxy)phenyl]piperidine-1-carbonyl]-2-methylphenyl]methane-sulfonamide]
85 | Cc1ccc(C(=O)N2CCC(c3ccc(S(=O)(=O)NCCO)cc3)CC2)cc1NS(C)(=O)=O [Example 220, N-(2-hydroxyethyl)-4-[1-(3-methanesulfonamido-4-methylbenzoyl)piperidin-4-yl]benzenesulfonamide]
74 | Cc1ccc(C(=O)N2CCC(c3ccc(NS(C)(=O)=O)cc3)CC2)cc1NS(C)(=O)=O [Example 221, N-[4-[1-(3-methanesulfonamido-4-methylbenzoyl)piperidin-4-yl]phenyl]methane-sulfonamide]
74 | Cc1ccc(C(=O)N2CCC(c3ccc(CS(C)(=O)=O)cc3)CC2)cc1NS(C)(=O)=O [Example 223, N-[2-methyl-5-[4-[4-(methylsulfonylmethyl)phenyl]piperidine-1-carbonyl]phenyl]-methanesulfonamide]
108 | Cc1ccc(C(=O)N2CCC(c3ccc(C#N)cc3)CC2)cc1NS(=O)(=O)C(C)(C)Cl [Example 224, 2-chloro-N-[5-[4-(4-cyanophenyl)piperidine-1-carbonyl]-2-methylphenyl]propane-2-sulfonamide]
89.1 | CCC(=O)NCc1ccc(C2CCN(C(=O)c3ccc(C)c(NS(C)(=O)=O)c3)CC2)cc1 [Example 225, N—[[4-[1-(3-methanesulfonamido-4-methylbenzoyl)piperidin-4-yl]phenyl]methyl]propanamide]
81 | Cc1ccc(C(=O)N2CCC(c3ccc(CNC(=O)C(C)C)cc3)CC2)cc1NS(C)(=O)=O [Example 226, N-[[4-[1-(3-methanesulfonamido-4-methylbenzoyl)piperidin-4-yl]phenyl]methyl]-2-methylpropanamide]
87.4 | CCS(=O)(=O)NCc1ccc(C2CCN(C(=O)c3ccc(C)c(NS(C)(=O)=O)c3)CC2)cc1 [Example 227, N-[[4-[1-(3-methanesulfonamido-4-methylbenzoyl)piperidin-4-yl]phenyl]methyl]ethanesulfonamide]
73.2 | Cc1ccc(C(=O)N2CCC(c3ccc(N(C)S(C)(=O)=O)cc3)CC2)cc1NS(C)(=O)=O [Example 230, N-[2-methyl-5-[4-[4-(methyl-methylsulfonylamino)phenyl]piperidine-1-carbonyl]phenyl]methanesulfonamide]
86.1 | Cc1ccc(C(=O)N2CCC(c3ccc(C(=O)N4CCOCC4)cc3)CC2)cc1NS(C)(=O)=O [Example 231, N-[2-methyl-5-[4-[4-(morpholine-4-carbonyl)phenyl]piperidine-1-carbonyl]phenyl]methanesulfonamide]
88.9 | Cc1ccc(C(=O)N2CCC(c3ccc(SC(F)(F)F)cc3)CC2)cc1NS(C)(=O)=O [Example 232, N-[2-methyl-5-[4-[4-(trifluoromethylsulfanyl)phenyl]piperidine-1-carbonyl]phenyl]methanesulfonamide]
81.8 | CNC(=O)NCc1ccc(C2CCN(C(=O)c3ccc(C)c(NS(C)(=O)=O)c3)CC2)cc1 [Example 233, 1-[[4-[1-(3-methanesulfonamido-4-methylbenzoyl)piperidin-4-yl]phenyl]methyl]-3-methylurea]
89.1 | COC(=O)NCc1ccc(C2CCN(C(=O)c3ccc(C)c(NS(C)(=O)=O)c3)CC2)cc1 [Example 239, Methyl N-[[4-[1-(3-methanesulfonamido-4-methylbenzoyl)piperidin-4-yl]phenyl]methyl]carbamate]
63.9 | CNC(=O)Cc1ccc(C2CCN(C(=O)c3ccc(C)c(NS(C)(=O)=O)c3)CC2)cc1 [Example 240, 2-[4-[1-(3-methanesulfonamido-4-methylbenzoyl)piperidin-4-yl]phenyl]-N-methylacetamide]
81.5 | Cc1ccc(C(=O)N2CCC(c3ccc(CNC(=O)CO)cc3)CC2)cc1NS(C)(=O)=O [Example 241, 2-hydroxy-N-[[4-[1-(3-methanesulfonamido-4-methylbenzoyl)piperidin-4-yl]phenyl]methyl]acetamide]

Second part, the compound before the results:

Structure (SMILES) | inhibition at 100 µM [%]
Cc1ccc(C(=O)N2CCC(c3ccc(C#N)cc3)CC2)cc1NS(=O)(=O)c1ccccc1C(=O)NCCO [Example 207, 2-[[5-[4-(4-cyanophenyl)piperidine-1-carbonyl]-2-methylphenyl]sulfamoyl]-N-(2-hydroxyethyl)benzamide] | 75
Cc1ccc(C(=O)N2CCC(c3ccc(C#N)cc3)CC2)cc1NS(=O)(=O)c1ccccc1C(=O)NC(C)C [Example 208, 2-[[5-[4-(4-cyanophenyl)piperidine-1-carbonyl]-2-methylphenyl]sulfamoyl]-N-propan-2-ylbenzamide] | 75
CS(=O)(=O)Nc1cc(C(=O)N2CCC(c3ccc(C#N)cc3)CC2)ccc1S(C)(=O)=O [Example 210, N-[5-[4-(4-cyanophenyl)piperidine-1-carbonyl]-2-methylsulfonylphenyl]methanesulfonamide] | 91
C[S+]([O-])c1ccc(C(=O)N2CCC(c3ccc(C#N)cc3)CC2)cc1NS(=O)(=O)Cc1ccccc1 (centres unmarked) [Example 211, N-[5-[4-(4-cyanophenyl)piperidine-1-carbonyl]-2-methylsulfinylphenyl]-1-phenylmethanesulfonamide] | 92
Cc1ccc(C(=O)N2CCC(O)(c3ccc(C(F)(F)F)cc3)CC2)cc1NS(C)(=O)=O [Example 215, N-[5-[4-hydroxy-4-[4-(trifluoromethyl)phenyl]piperidine-1-carbonyl]-2-methylphenyl]methanesulfonamide] | 56
Cc1cc(C2CCN(C(=O)c3ccc(C)c(NS(C)(=O)=O)c3)CC2)ccc1C#N [Example 217, N-[5-[4-(4-cyano-3-methylphenyl)piperidine-1-carbonyl]-2-methylphenyl]methane-sulfonamide] | 60
Cc1ccc(C(=O)N2CCC(c3ccc(C(=O)NCCN(C)C)cc3)CC2)cc1NS(C)(=O)=O [Example 222, N-(2-dimethylaminoethyl)-4-[1-(3-methanesulfonamido-4-methylbenzoyl)piperidin-4-yl]benzamide] | 64
CCOC(=O)NCc1ccc(C2CCN(C(=O)c3ccc(C)c(NS(C)(=O)=O)c3)CC2)cc1 [Example 228, Ethyl N-[[4-[1-(3-methanesulfonamido-4-methylbenzoyl)piperidin-4-yl]phenyl]methyl]carbamate] | 85.5
Cc1ccc(Oc2ccc(C3CCN(C(=O)c4ccc(C)c(NS(C)(=O)=O)c4)CC3)cc2)nn1 [Example 229, N-[2-methyl-5-[4-[4-(6-methylpyridazin-3-yl)oxyphenyl]piperidine-1-carbonyl]phenyl]methanesulfonamide] | 80.2
CCNC(=O)NCc1ccc(C2CCN(C(=O)c3ccc(C)c(NS(C)(=O)=O)c3)CC2)cc1 [Example 234, 1-ethyl-3-[[4-[1-(3-methanesulfonamido-4-methylbenzoyl)piperidin-4-yl]phenyl]methyl]urea] | 78.3
CCCC(=O)NCc1ccc(C2CCN(C(=O)c3ccc(C)c(NS(C)(=O)=O)c3)CC2)cc1 [Example 235, N-[[4-[1-(3-methanesulfonamido-4-methylbenzoyl)piperidin-4-yl]phenyl]methyl]butanamide] | 72.8
Cc1ccc(C(=O)N2CCC(c3ccc(CNC(=O)CC(C)C)cc3)CC2)cc1NS(C)(=O)=O [Example 236, N-[[4-[1-(3-methanesulfonamido-4-methylbenzoyl)piperidin-4-yl]phenyl]methyl]-3-methylbutanamide] | 59.8
CCCS(=O)(=O)NCc1ccc(C2CCN(C(=O)c3ccc(C)c(NS(C)(=O)=O)c3)CC2)cc1 [Example 237, N-[[4-[1-(3-methanesulfonamido-4-methylbenzoyl)piperidin-4-yl]phenyl]methyl]propane-1-sulfonamide] | 85.2
Cc1ccc(C(=O)N2CCC(c3ccc(CNS(=O)(=O)CC(C)C)cc3)CC2)cc1NS(C)(=O)=O [Example 238, N-[[4-[1-(3-methanesulfonamido-4-methylbenzoyl)piperidin-4-yl]phenyl]methyl]-2-methylpropane-1-sulfonamide] | 81.3
